Data as given in patent US9416103B2, “Use of the aminoalkylindole JWH-073-M4 and related compounds as neutral CB1 receptor antagonists for the treatment of alcoholism, drug abuse, obesity, and obesity-related diseases” (The Board of Trustees of the University of Arkansas, priority 2012, dated 2016).
Read-outs that look alike come from different tables or passages of the source. Marks after values point to notes of the source that are not given here.

Legend:
mice [1] = assay: Alcohol conditioned place preference (CPP); assay type: in vivo, mouse; conditions: 10 mg/kg given 1 hour before EtOH pairings
Protocol: Alcohol conditioned place preference assay was done with compounds TV-6-41 and rimonabant. This assay tests the effects of these compounds on conditioned rewarding effects of EtOH. Training of mice involved 4 daily injections of […] EtOH paired with location to one of two chambers (four pairings) after which an increase in time spent in the EtOH-paired chamber was observed, and this points to the development of conditioned place preference (FIG. 24, ‘Pre” bar vs. “Post” bar). […] With the CPP training underway, mice were exposed to succeeding conditioning trials either with 10 mg/kg TV-6-41 or […] 1 hour before EtOH pairings. […] During these studies it was observed that 4 pairings of […] EtOH elicited a CPP of about 400 sec (FIG. 25, “No inj” bar).

CHO-WT cells = assay: AC-inhibition assay in CHO-WT cells not transfected with CB2Rs; assay type: cell-based, Chinese hamster
Protocol: To examine if the observed agonist activity is due to activation of CB2Rs, an additional AC-inhibition assay was performed.

[2] = target: CB1Rs endogenously expressed in Neuro2A cells (Mus musculus (Mouse), UniProt P47746); assay: Adenylyl cyclase (AC) inhibition via CB1Rs endogenously expressed in Neuro2A cells; assay type: cell-based; conditions: for antagonism of AC-inhibition produced by the CB1R full agonist JWH-073: 1 μM concentration; for inhibition at 10 µM: N2a
hCB2Rs [3] = target: T1, hCB2Rs (Homo sapiens (Human), UniProt P34972); assay: Competition receptor binding with [3H]CP-55,940 in CHO-hCB2 cell homogenates; conditions: Table 3; read-out: hCB2R Ki
Protocol: (§1) Competition receptor binding was performed as previously described. […] Reactions were terminated by rapid vacuum filtration through Whatman GF/B glass fiber filters, followed by five washes with ice-cold buffer (50 mM Tris, 0.05% BSA). Filters were immediately placed into 7 mL scintillation vials to which 4 mL of ScintiVerse™ BD Cocktail scintillation fluid (Fisher Scientific, Fair Lawn, N.J.) was added. Bound radioactivity was determined after overnight incubation at room temperature and shaking, by liquid scintillation spectrophotometry with an efficiency of 44% (Tri Carb 2100 TR Liquid Scintillation Analyzer, Packard Instrument Company, Meriden, Conn.). Specific binding is expressed as total binding minus non-specific binding, and is graphed for each data point as a percentage of specific binding occurring in the absence of any competitor.
(§2) The prepared analogues were subjected to in vitro pharmacological testing, which included receptor binding and functional assays at both cannabinoid receptors. Initial receptor binding screens at both CB1Rs and CB2Rs were conducted for the analogues prepared.

hCB2Rs [4] = target: T1, hCB2Rs; assay: Inhibition of forskolin-stimulated cAMP production (adenylyl cyclase) in intact CHO-hCB2R cells; assay type: cell-based; conditions: for inhibition at 10 µM: CHO cell transfected with hCB2 receptors, read-out: AC-inhibition at CB2Rs; for inhibition of AC-activity at CB2Rs, concentration-effect: CHO-hCB2 cells
Protocol: Adenylyl cyclases are a family of membrane-bound enzymes that catalyze the intracellular production of the second messenger cAMP from ATP. Adenylyl cyclase activity is modulated by activated G-proteins: Gs-proteins stimulate activity, while Gi/o-proteins are inhibitory. Thus, agonists of G-protein coupled receptors (GPCRs) coupled to Gi/o-proteins, such as hCB2Rs, decrease cAMP production due to inhibition of adenylyl cyclase activity. In this assay, intact CHO-hCB2R cells are preincubated with [^3H]-adenine and treated with forskolin (10 or 30 μM) to stimulate adenylyl cyclase activity.
A functional assay screen for the inhibition of adenylate cyclase (AC) activity was chosen as the subsequent assay. […] Reaching full-receptor occupancy, which is predicted to produce maximal efficacy, is desirable at 10 μM concentration of all the compounds was used.

CB1Rs [5] = target: T2, CB1Rs (Mus musculus (Mouse), UniProt P47746); assay: Competition receptor binding with [3H]CP-55,940 in mouse brain homogenates; conditions: Table 3; read-out: mCB1R Ki
Protocol: (§3) Mouse brain homogenates for in vitro assays were prepared as previously described. Briefly, whole brains were harvested from B6SJL mice, snap-frozen in liquid nitrogen and stored at −80° C. On the day membrane homogenates were to be prepared, brains were thawed on ice, then pooled in a 40 mL Dounce glass homogenizer and suspended in 5 volumes of ice cold homogenization buffer (50 mM HEPES, pH 7.4, 3 mM MgCl2, and 1 mM EGTA). Brains were then subjected to 10 complete strokes with an A pestle, followed by centrifugation at 40,000×g for 10 minutes at +4° C. Resulting supernatants were discarded, and the pellet was resuspended, homogenized and centrifuged similarly twice more, with supernatants being discarded. For the final resuspension and homogenization with a B pestle, ice-cold 50 mM HEPES was used in place of homogenization buffer, and homogenates were aliquoted and stored at −80° C. Protein concentrations of homogenates were determined using the BCA™ Protein Assay (Thermo Scientific, Rockford, Ill.).
as §1
(§4) Curve fitting and statistical analyses for in vitro experiments were performed using GraphPad Prism™ version 5.0b (GraphPad Software Inc., San Diego, Calif.). The Cheng-Prusoff equation [45] was used to convert the experimental IC50 values obtained from competition receptor binding experiments to Ki values, a quantitative measure of receptor affinity. Non-linear regression for one-site competition was used to determine the IC50 for competition receptor binding. Curve fitting of concentration-effect curves via non-linear regression was also employed to determine the EC50 (a measure of potency) and Emax (a measure of efficacy) for [^35S]GTPγS concentration-effects experiments. […] Data are expressed as mean±SEM. The Student's t-test was used to determine statistical significance (P<0.05) between two groups, while a one-way ANOVA, followed by Tukey's Multiple Comparison post-hoc test, was used to determine statistical significance (P<0.05) between three or more groups.
as §2

mice [6] = assay: Thermoregulation assay, antagonism of JWH-073-induced hypothermia; assay type: in vivo, mouse; conditions: 30 minute pretreatment before JWH-073 10 mg/kg
Text: Our hypothesis is that a dual activity CB1R antagonist/CB2R agonist will reduce the reinforcing effects of EtOH as well as reduce the conditioned rewarding effects of ethanol in mice. The compounds selected will firstly be put through a thermoregulation assay as a screen for potential cannabinoid receptor activity. Thermoregulation will be used as a screen because of the well-established hypothermic effects seen with the use of cannabinoid ligands. This assay was done using glass radiotelemetry probes that were surgically implanted in each mouse, which monitor core temperature in response to drug administration. […] This screen does indeed confirm the in vivo cannabinoid activity of TV-5-249 and TV-6-41 and it also illustrates the evident antagonist effects against agonist induced hypothermia.

CB1Rs [7] = target: T2, CB1Rs; assay: [35S]GTPγS binding assay (G-protein activation) in mouse brain homogenates; assay type: biochemical
Protocol: as §3
[^35S]GTPγS binding was performed as previously described. Briefly, 25 μg of mouse brain homogenates were incubated for 30 minutes at 30° C. with 0.1 nM [^35S]GTPγS, 10 μM GDP, and either cannabinoid+/−antagonist, 10 μM unlabeled GTPγS (non-specific binding) or vehicle (total binding), in triplicate, in a volume of 1 mL of buffer containing 20 mM HEPES, 10 mM MgCl2, 100 mM NaCl, 20 units/L adenosine deaminase, 0.05% BSA and the appropriate DMSO (0.1%) and/or ethanol (<0.2%) vehicle. Assay buffer containing 100 mM KCl, instead of 100 mM NaCl, was used to increase basal G-protein activity in experiments examining inverse agonism. Reactions were terminated by quick vacuum filtration through Whatman GF/B glass fiber filters, followed by five washes with ice-cold buffer (20 mM HEPES, 0.05% BSA). Filters were immediately placed into 7 mL scintillation vials to which 4 mL of ScintiVerse™ BD Cocktail scintillation fluid was added. Bound radioactivity was determined after overnight incubation at room temperature and shaking by liquid scintillation spectrophotometry with an efficiency of 93% (Tri Carb 2100 TR Liquid Scintillation Analyzer, Packard Instrument Company, Meriden, Conn.). Specific binding is expressed as picomoles of [^35S]GTPγS bound per mg of protein.
as §4

CB1Rs [8] = target: T2, CB1Rs; conditions: mouse brain homogenates; values previously reported [39]; read-out: [3H]CP binding Ki; cited from earlier work
mice [9] = assay: Oral EtOH self administration, 2-bottle choice procedure; conditions: daily treatment 10 mg/kg
Text: These assays are important models for the study of alcoholism because they model several aspects of this condition including voluntary EtOH drinking (SA), conditioned EtOH reward (CPP), abstinence and relapse, which represent extinction and reinstatement of CPP, respectively. Effects of TV-5-249 on voluntary 10% EtOH drinking were studied using a 2-bottle choice procedure described by Keane and coworkers as wells as by Cunningham and coworkers. […] After 5 such observations, which represents a two week washout period, daily treatments with 10 mg/kg TV-5-249 were initiated. […] The last treatment was an everyday injection of vehicle, which is 8% Tween/92% sterile water solution and it represents the solution in which both drugs were dissolved in prior to injections.

Compound	EtOH conditioned place preference (mice [1])	AC-activity in CHO-WT cells not transfected with CB2Rs (CHO-WT cells)	antagonism of AC-inhibition produced by the CB1R full agonist JWH-073 [2]	inhibition at 10 µM ([2]; 10 μM, Neuro2A cells) [%]	inhibition of AC-activity via CB1Rs, concentration-effect ([2]; Neuro2A cells)	Ki (hCB2Rs [3]) [nM]	inhibition at 10 µM (hCB2Rs [4]) [%]	inhibition of AC-activity at CB2Rs, concentration-effect (hCB2Rs [4])	Ki (CB1Rs [5]) [nM]	effect on JWH-073-induced hypothermia (mice [6])	AC-inhibition at CB1Rs ([2]; 10 μM, Neuro2A cells) [%]	[35S]GTPγS Binding, 100 nM (CB1Rs [7]; 100 nM) [pmol/mg]	[35S]GTPγS Binding, +O-2050 (1 μM) (CB1Rs [7]; 1 μM cannabinoid (100 nM for CP-55,940) co-incubated with CB1R antagonist O-2050 1 μM) [pmol/mg]	[35S]GTPγS Binding Emax (CB1Rs [7]; concentration-effect, mouse brain homogenates)	EC50 (CB1Rs [7]; concentration-effect, mouse brain homogenates, read-out: [35S]GTPγS Binding EC50) [nM]	Ki (CB1Rs [8]) [nM]	EtOH preference (10% EtOH, 2-bottle choice) (mice [9])	body weight (mice [9])	total fluid consumption (mice [9])
CCCCn1cc(-c2ccc3ccccc3c2)c2cccc(OC)c21 [TV-6-41, 1-butyl-7-methoxy-3-(naphthalen-2-yl)-1H-indole]	conditioned rewarding effects of EtOH were blocked	neither TV-5-249 nor TV-6-41 significantly modify AC-activity	antagonize AC inhibition	16	very little inhibition of AC-activity	26.5	20.8	40-50%	37.3 ± 11.8	significantly decreased the hypothermic effects of JWH-073									
CCCCCCC(C)(C)c1ccc(C2CC(O)CC[C@H]2CCCO)c(O)c1 (some centres unmarked) [CP-55,940]											45	0.20 ± 0.04	0.06 ± 0.03	0.26 ± 0.01^a pmole/mg	7.5 ± 1.8	0.26 ± 0.1			
CCCCn1cc(Cc2cccc3ccccc23)c2cccc(OC)c21 [TV-5-249, 1-butyl-7-methoxy-3-(naphthalen-1-ylmethyl)-1H-indole]		neither TV-5-249 nor TV-6-41 significantly modify AC-activity	antagonize AC inhibition	18	very little inhibition of AC-activity	10.9	33.2	40-50%	15.4 ± 2.2	significantly decreased the hypothermic effects of JWH-073							reduced EtOH preference	did not decrease body weight	without affecting total fluid consumption
Cc1c(C(=O)NN2CCCCC2)nn(-c2ccc(Cl)cc2Cl)c1-c1ccc(Cl)cc1 [rimonabant, 5-(4-Chlorophenyl)-1-(2,4-dichloro-phenyl)-4-methyl-N-(piperidin-1-yl)-1H-pyrazole-3-carboxamide, reference compound]	did not elicit a significant preference for the EtOH-paired chamber																decreases EtOH preference	does indeed have an effect on body weight	without having any effect on total fluid intake
